Experimental data published in PMC9568670, “A dominant negative mitofusin causes mitochondrial perinuclear clusters because of aberrant tethering” (Life Science Alliance, 2022).
Positions count from the first letter of the chain named. Counter-ions that a name gives are not always drawn.

Legend:
Format in all cases: biochemical
[1] = molecular target: T1, Mfn1^WT-FLAG (full-length) (Mus musculus, UniProt Q811U4); assay: blue native PAGE of isolated mitochondria, nucleotide-dependent oligomerization; details: 2 mM GMP-PNP, 37 C, 30 min; non-hydrolyzable GTP analog; indirect read-out by oligomer shift
T1 construct: full-length Mfn1 with FLAG tag, TET-induced in Flp-In TREx HEK293 cells; isolated mitochondria; ~200 kD species consistent with cis dimer
T1 sequence (Q811U4 1-741): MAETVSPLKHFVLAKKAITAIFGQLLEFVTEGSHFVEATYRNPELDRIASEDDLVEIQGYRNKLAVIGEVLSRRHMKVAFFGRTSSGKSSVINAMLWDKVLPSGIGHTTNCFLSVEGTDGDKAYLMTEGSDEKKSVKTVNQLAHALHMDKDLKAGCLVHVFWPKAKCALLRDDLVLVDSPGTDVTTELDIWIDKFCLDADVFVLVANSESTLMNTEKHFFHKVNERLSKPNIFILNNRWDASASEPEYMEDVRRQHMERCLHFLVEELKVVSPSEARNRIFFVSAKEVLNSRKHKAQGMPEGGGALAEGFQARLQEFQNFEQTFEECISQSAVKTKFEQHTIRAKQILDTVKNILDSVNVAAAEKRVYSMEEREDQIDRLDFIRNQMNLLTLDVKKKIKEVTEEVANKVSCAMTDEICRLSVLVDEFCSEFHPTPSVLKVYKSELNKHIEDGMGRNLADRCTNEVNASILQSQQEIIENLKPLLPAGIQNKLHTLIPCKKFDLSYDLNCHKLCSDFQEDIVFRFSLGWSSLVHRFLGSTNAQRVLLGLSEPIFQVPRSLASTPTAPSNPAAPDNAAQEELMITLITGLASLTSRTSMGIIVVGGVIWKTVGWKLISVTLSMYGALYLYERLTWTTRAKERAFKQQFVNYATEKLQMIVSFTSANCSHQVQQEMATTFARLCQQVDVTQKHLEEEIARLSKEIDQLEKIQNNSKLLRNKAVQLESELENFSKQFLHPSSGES

[2] = molecular target: T2, Mfn1IM (mini-mitofusin Mfn1) (Homo sapiens, UniProt Q8IWA4, S329P/DEL366-695); assay: malachite green phosphate release, allosteric sigmoidal fit; details: 2.5 uM protein; pH 7.4, 50 mM KCl, 5 mM MgCl2, 1 mM DTT, 37 C, 15 min
T2 construct: pET28, E. coli Rosetta(DE3); N-terminal His6 cut off with PreScission; ~50 kD; monomer with GDP, dimer with GDP-BeF3-
T2 sequence (Q8IWA4 1-365 S329P): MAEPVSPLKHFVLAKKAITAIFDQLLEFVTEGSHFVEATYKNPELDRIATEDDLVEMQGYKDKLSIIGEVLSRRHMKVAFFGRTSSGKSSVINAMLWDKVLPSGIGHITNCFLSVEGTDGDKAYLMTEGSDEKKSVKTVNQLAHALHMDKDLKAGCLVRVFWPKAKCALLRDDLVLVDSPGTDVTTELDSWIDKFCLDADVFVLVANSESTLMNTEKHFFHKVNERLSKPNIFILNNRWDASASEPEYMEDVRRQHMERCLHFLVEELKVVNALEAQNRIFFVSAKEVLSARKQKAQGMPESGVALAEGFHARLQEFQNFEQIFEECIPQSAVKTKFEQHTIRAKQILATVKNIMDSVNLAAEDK
T2 sequence (Q8IWA4 696-741): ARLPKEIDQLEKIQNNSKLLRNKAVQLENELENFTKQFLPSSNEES

[3] = molecular target: T3, Mfn1IM (mini-mitofusin Mfn1) (Homo sapiens, UniProt Q8IWA4, DEL366-695); assay: as above; details: 2.5 uM protein; pH 7.4, 50 mM KCl, 5 mM MgCl2, 1 mM DTT, 37 C, 15 min
T3 construct: pET28, E. coli Rosetta(DE3); N-terminal His6 cut off with PreScission; ~50 kD; monomer with GDP, dimer with GDP-BeF3-
T3 sequence (Q8IWA4 1-365): T2 sequence (Q8IWA4 1-365 S329P) with P329S
T3 sequence (Q8IWA4 696-741): T2 sequence (Q8IWA4 696-741)

Structure (SMILES)	blue native PAGE of isolated mitochondria, nucleotide-dependent oligomerization [1]	Khalf [2]	Khalf [3]
Nc1nc2c(ncn2[C@@H]2O[C@H](COP(=O)(O)OP(=O)(O)NP(=O)(O)O)[C@@H](O)[C@H]2O)c(=O)[nH]1 [GMP-PNP, guanosine 5′-β,γ-imidotriphosphate trisodium salt hydrate]	GMP-PNP, which shifts mitofusin from the dimer into two larger species	–	–
Nc1nc2c(ncn2[C@@H]2O[C@H](COP(=O)(O)OP(=O)(O)OP(=O)(O)O)[C@@H](O)[C@H]2O)c(=O)[nH]1 [GTP]	–	kinetics of GTP hydrolysis was similar between Mfn1IM^WT and Mfn1IM^S329P	kinetics of GTP hydrolysis was similar between Mfn1IM^WT and Mfn1IM^S329P
